Measured values as given in ChEMBL document CHEMBL1148086, “Isolation of the furan fatty acid, (8Z,11Z,14Z,17Z)-3,6-epoxyeicos-3,5,8,11,14,17-hexenoic acid from the New Zealand sponge Hymeniacidon hauraki” (J Nat Prod, 1994).
≈ marks a conversion by molar mass, not a printed value. Calls of active or inactive are those of the source. The calls are words filed in the database; no cut-off is given here.

Legend:
[1] = system: Human alphaherpesvirus 1; experiment: Antiviral activity against Herpes simplex virus type 1 in african green monkey BSC1 cells after 24 hrs; type: functional, organism-based
[2] = system: Poliovirus 1; experiment: Antiviral activity against Polio virus type 1 in african green monkey BSC1 cells after 24 hrs; type: functional, organism-based
[3] = system: P388; experiment: Cytotoxicity against mouse P388 cells after 48 hrs by SRB assay; type: functional, cell-based
[4] = Cytotoxicity against african green monkey BSC1 cells after 24 hrs; type: cell-based; conditions: chlorocebus aethiops, bsc-1, 24 h

| Compound | IC50 ([1]; bsc-1) | IC50 ([2]; bsc-1) | IC50 ([3]; p388) | Activity [4] | Activity ([1]; BSC-1) | Activity ([2]; BSC-1) | IC50 ([3]; Mus musculus, P388, 48 h, read-out: IC50) [µg/mL] |
| --- | --- | --- | --- | --- | --- | --- | --- |
| CC/C=C\C/C=C\C/C=C\C/C=C\Cc1ccc(CC(=O)OC)o1 | Not Active | Not Active | Not Active | Not Active | – | – | – |
| CC/C=C\C/C=C\C/C=C\C/C=C\Cc1ccc(CC(=O)O)o1 | – | – | – | 2 mm | Active | Active | 13.4 (≈ 42.6 µM) |
